# From ChEMBL document CHEMBL2094269, “WEHI/Eskitis Trypanosoma b. brucei screening data”
# Columns and labels:
# [1] = system: Trypanosoma brucei brucei; test: microbe, parasite or virus in culture; type: functional, organism-based, STIB 795
# Description: DNDI: Inhibition of Human African Trypanosomiasis (HAT), STIB 795, in vitro
# [2] = DNDI: Cytotoxicity against human MRC-5 lung fibroblast cells.; settings: IC50
smiles,measurement,setting,value
O=C1c2cccc3cccc(c23)C(=O)N1CCNCCO,IC50,"[1]; Trypanosoma brucei, STIB 795",4.5 µM
same,IC50,[2],> 4.17 µM
COc1ccc(C(=O)CSC2=C(C#N)C3(CCCCC3)C(C#N)=C(N)N2)cc1,IC50,"[1]; Trypanosoma brucei, STIB 795",> 10.4 µM
CCN(CC)c1cc(C)c2cc(NC(=O)/C=C/c3ccccc3Cl)ccc2n1,IC50,"[1]; Trypanosoma brucei, STIB 795",> 10.4 µM
CCCC(=O)NC(c1ccc2c(c1)OCO2)c1cc(Cl)c2cccnc2c1O (stereo not drawn),IC50,"[1]; Trypanosoma brucei, STIB 795",> 10.4 µM
NCCc1c[nH]c2ccc(C3CCCCC3)cc12,IC50,"[1]; Trypanosoma brucei, STIB 795",1.28 µM
same,IC50,[2],> 20.8 µM
Cc1ccc(CN2C(=O)CCC2C(=O)N2CCN(c3ccc(F)cc3)CC2)cc1 (stereo not drawn),IC50,"[1]; Trypanosoma brucei, STIB 795",> 10.4 µM
COc1ccc(OC)c(/C=C/C(=O)Nc2ccc(C(=O)OCCC(C)C)cc2)c1,IC50,"[1]; Trypanosoma brucei, STIB 795",> 10.4 µM
N#CC1=C(N)OC2=C(CC/C2=C\c2ccccc2Cl)C1c1ccccc1Cl (stereo not drawn),IC50,"[1]; Trypanosoma brucei, STIB 795",> 10.4 µM
CN(C)c1ccc(/C=C/c2sc3ccc4ccccc4c3[n+]2C)cc1,IC50,"[1]; Trypanosoma brucei, STIB 795",< 0.004 µM
same,IC50,[2],> 2.08 µM
CC12C(=O)N(c3ccc(Cl)cc3O)C(=O)C1C1c3ccccc3C2c2ccccc21 (stereo not drawn),IC50,"[1]; Trypanosoma brucei, STIB 795",> 10.4 µM
Cc1ccccc1-n1sc2ccccc2c1=O,IC50,"[1]; Trypanosoma brucei, STIB 795",1.99 µM
same,IC50,[2],> 20.8 µM
Cc1ccc(O)c(/N=N/c2nnc[nH]2)c1,IC50,"[1]; Trypanosoma brucei, STIB 795",0.404 µM
same,IC50,[2],> 10.4 µM
O=C(Nc1ccc(Cl)c(-c2nc3ncccc3o2)c1)c1ccco1,IC50,"[1]; Trypanosoma brucei, STIB 795",0.17 µM
same,IC50,[2],> 41.7 µM
CC1CCc2nc(SC3CC(=O)C4OCC3O4)nc(C(F)(F)F)c2C1 (stereo not drawn),IC50,"[1]; Trypanosoma brucei, STIB 795",2.62 µM
same,IC50,[2],> 20.8 µM
C/C(=C\c1ccccc1)c1nc2c(=O)n(C)c(=O)nc-2n(C)n1,IC50,"[1]; Trypanosoma brucei, STIB 795",5.62 µM
same,IC50,[2],> 20.8 µM
CN(C)CCOc1ccccc1C1NCCc2c1[nH]c1ccccc21 (stereo not drawn),IC50,"[1]; Trypanosoma brucei, STIB 795",1.28 µM
same,IC50,[2],> 20.8 µM
Cc1c(C)c(C)c2c(CC(C)N)c[nH]c2c1C (stereo not drawn),IC50,"[1]; Trypanosoma brucei, STIB 795",4.24 µM
same,IC50,[2],> 41.7 µM
Cc1cccc2ccc(/C=C/c3ccc(N(C)C)cc3)[n+](C)c12,IC50,"[1]; Trypanosoma brucei, STIB 795",< 0.004 µM
same,IC50,[2],> 4.17 µM
Oc1c(C(c2ccc(C(F)(F)F)cc2)N2CCOCC2)ccc2cccnc12 (stereo not drawn),IC50,"[1]; Trypanosoma brucei, STIB 795",5.43 µM
same,IC50,[2],> 20.8 µM
CC(=O)NC(=S)NNC(=O)c1ccccc1OCc1ccccc1,IC50,"[1]; Trypanosoma brucei, STIB 795",2.88 µM
same,IC50,[2],> 20.8 µM
COc1ccc(N2C(=O)CN(Cc3ccccc3)C2=S)cc1Cl,IC50,"[1]; Trypanosoma brucei, STIB 795",5.49 µM
same,IC50,[2],> 41.7 µM
COc1ccc(C(=O)C(C)N2C=CC=C/C2=C2\C=CC=CN2)cc1 (stereo not drawn),IC50,"[1]; Trypanosoma brucei, STIB 795",4.25 µM
same,IC50,[2],> 41.7 µM
CC[n+]1c(/C=C2\SC=C(c3ccccc3)N2C)ccc2cc(C)ccc21,IC50,"[1]; Trypanosoma brucei, STIB 795",0.416 µM
same,IC50,[2],> 10.4 µM
O=C(CC1(O)C(=O)Nc2ccc(I)cc21)c1cccs1 (stereo not drawn),IC50,"[1]; Trypanosoma brucei, STIB 795",0.931 µM
same,IC50,[2],> 41.7 µM
COc1ccc(-c2nc(Nc3ccc(F)cc3F)c3ccccc3n2)cc1OC,IC50,"[1]; Trypanosoma brucei, STIB 795",7.04 µM
same,IC50,[2],> 41.7 µM
N=C(N)N/N=C1/C(=O)Nc2ccc(Br)cc21,IC50,[2],> 41.7 µM
COc1ccc(C(=O)c2ccc(N3CCNCC3)c(F)c2)cc1Br,IC50,"[1]; Trypanosoma brucei, STIB 795",> 10.4 µM
O=C(Nc1ccccc1C(=O)N/N=C/c1ccc(O)cc1O)c1ccc(F)cc1,IC50,"[1]; Trypanosoma brucei, STIB 795",> 10.4 µM
Oc1c(C(Nc2ccccn2)c2ccc(OC(F)F)cc2)ccc2cccnc12 (stereo not drawn),IC50,"[1]; Trypanosoma brucei, STIB 795",> 10.4 µM
CC(=O)NC1=C(N2CCN(c3ccc(F)cc3)CC2)C(=O)c2ccccc2C1=O,IC50,"[1]; Trypanosoma brucei, STIB 795",> 10.4 µM
O=C(NCC1CCCO1)c1cccc(Oc2cc(-c3ccc(F)cc3)ncn2)c1 (stereo not drawn),IC50,"[1]; Trypanosoma brucei, STIB 795",> 10.4 µM
Cc1nnc(Sc2nc(Nc3ccccc3)nc(Nc3ccccc3)n2)s1,IC50,"[1]; Trypanosoma brucei, STIB 795",> 10.4 µM
Cc1nc(=S)sn1-c1nc(Nc2ccccc2)nc(Nc2ccccc2)n1,IC50,"[1]; Trypanosoma brucei, STIB 795",> 10.4 µM
CCn1cc(CN2CCC(C(=O)NCc3ccc(F)cc3)CC2)c2ccccc21,IC50,"[1]; Trypanosoma brucei, STIB 795",> 10.4 µM
O=C(Nc1ccccc1C(=O)N/N=C/c1ccccc1O)c1ccccc1Cl,IC50,"[1]; Trypanosoma brucei, STIB 795",> 10.4 µM
Cc1ccnc(NC(c2ccc3cccnc3c2O)c2c(F)cccc2Cl)c1 (stereo not drawn),IC50,"[1]; Trypanosoma brucei, STIB 795",> 10.4 µM
Cc1cc(N2CCC(C)CC2)nc2ccc(NC(=O)c3cccc(Cl)c3)cc12,IC50,"[1]; Trypanosoma brucei, STIB 795",> 10.4 µM
CC(C)(C)c1ccc(C(OC(CN)c2ccccc2)c2ccc(Cl)cc2)cc1 (stereo not drawn),IC50,"[1]; Trypanosoma brucei, STIB 795",> 10.4 µM
Cc1nc2ccc3nc(NC(=O)c4ccc(Cl)cc4Cl)sc3c2s1,IC50,"[1]; Trypanosoma brucei, STIB 795",> 10.4 µM
CCOC(=O)c1ccc(NC(=O)CN(c2cccc(F)c2)S(C)(=O)=O)cc1,IC50,"[1]; Trypanosoma brucei, STIB 795",> 10.4 µM
O=C1C(Nc2ccccc2)=C/C(=N/S(=O)(=O)c2cccs2)c2ccccc21,IC50,"[1]; Trypanosoma brucei, STIB 795",> 10.4 µM
[H]/N=C(/N)SCc1nc2n(Cc3ccccc3)c3ccccc3n2c1C(=O)OC,IC50,"[1]; Trypanosoma brucei, STIB 795",> 10.4 µM
COc1ccc(CNC2=C(C(=S)Nc3ccccc3)C(=O)CC(C)(C)C2)cc1,IC50,"[1]; Trypanosoma brucei, STIB 795",> 10.4 µM
Oc1ccc(-c2nnc(SCCN3CCCCC3)n2Cc2ccccc2)cc1,IC50,"[1]; Trypanosoma brucei, STIB 795",> 10.4 µM
COc1ccc(CN2CCN(C3CCC(c4ccccc4)CC3)CC2)c(OC)c1 (stereo not drawn),IC50,"[1]; Trypanosoma brucei, STIB 795",> 10.4 µM
CC1=NN(c2ccccc2)C(=O)/C1=C/c1ccc(Sc2ccc(Cl)cc2)o1,IC50,"[1]; Trypanosoma brucei, STIB 795",> 10.4 µM
Clc1ccc2nc(CCc3ccccc3)nc(NCCN3CCCCC3)c2c1,IC50,"[1]; Trypanosoma brucei, STIB 795",> 10.4 µM
O=C(O)c1ccccc1N/N=C(/c1ccccc1)c1ccc(Br)cc1,IC50,"[1]; Trypanosoma brucei, STIB 795",> 10.4 µM
COc1cccc(C2=CC(c3cc(OC)c(OC)c(OC)c3)n3nnnc3N2)c1 (stereo not drawn),IC50,"[1]; Trypanosoma brucei, STIB 795",> 10.4 µM
Cc1cc(N2CCC(C)CC2)nc2ccc(NC(=O)c3c(F)cccc3F)cc12,IC50,"[1]; Trypanosoma brucei, STIB 795",> 10.4 µM
CCN(CC)c1cc(C)c2cc(NC(=O)C3CCC(C(C)(C)C)CC3)ccc2n1 (stereo not drawn),IC50,"[1]; Trypanosoma brucei, STIB 795",> 10.4 µM
O=C(CCC(=O)Nc1cccc(Cl)c1)N/N=C/c1c(O)ccc2ccccc12,IC50,"[1]; Trypanosoma brucei, STIB 795",> 10.4 µM
COc1cccc(/C=N/NC(=O)c2ccccc2I)c1O,IC50,"[1]; Trypanosoma brucei, STIB 795",> 10.4 µM
CCN(CC)CCOC(COC)(c1ccc(Cl)cc1)c1ccc(Cl)cc1,IC50,"[1]; Trypanosoma brucei, STIB 795",> 10.4 µM
Cc1ccc(S(=O)(=O)/N=C2\C=C(N3CCOCC3)C(=O)c3ccccc32)cc1,IC50,"[1]; Trypanosoma brucei, STIB 795",> 10.4 µM
CC(C)CCOc1ccc(/C=N/NC(=O)C23CC4CC(C)(CC(C)(C4)C2)C3)cc1,IC50,"[1]; Trypanosoma brucei, STIB 795",> 10.4 µM
CCN(CC)CC(O)CN(/N=C/c1ccc(N(CC)CC)cc1)c1ccccc1 (stereo not drawn),IC50,"[1]; Trypanosoma brucei, STIB 795",> 10.4 µM
CCOC(=O)COc1ccc(/C=C\c2cc(C(F)(F)F)nc(=O)[nH]2)cc1OC,IC50,"[1]; Trypanosoma brucei, STIB 795",> 10.4 µM
Cc1ccc(O)c(/C=N/NC(=O)C2=NNC(c3ccccc3)(c3ccccc3)C2)c1,IC50,"[1]; Trypanosoma brucei, STIB 795",> 10.4 µM
COc1cc(C(CC(=O)c2ccco2)Sc2ccccc2)cc(OC)c1OC (stereo not drawn),IC50,"[1]; Trypanosoma brucei, STIB 795",> 10.4 µM
COc1ccc(C(=O)NN=C2C=C(C(C)(C)C)C(=O)C(C(C)(C)C)=C2)cc1OC,IC50,"[1]; Trypanosoma brucei, STIB 795",> 10.4 µM
CCOC(=O)C1=C(C)NC(SCC(=O)c2ccccc2)=C(C#N)C1CC(C)C (stereo not drawn),IC50,"[1]; Trypanosoma brucei, STIB 795",> 10.4 µM
Cc1ccc(NC(=O)CN(C)C(=O)c2ccc3c(c2)nnn3C(C)C)c(Cl)c1,IC50,"[1]; Trypanosoma brucei, STIB 795",> 10.4 µM
O=S1(=O)Nc2c(ccc3cccnc23)-c2ccccc21,IC50,"[1]; Trypanosoma brucei, STIB 795",2.87 µM
same,IC50,[2],> 20.8 µM
c1ccc(Nc2nc(-c3ccccn3)cs2)nc1,IC50,"[1]; Trypanosoma brucei, STIB 795",0.718 µM
same,IC50,[2],> 10.4 µM
OCCNC1CCCc2c1[nH]c1ccc(Br)cc21 (stereo not drawn),IC50,[1],1.83 µM
same,IC50,"[1]; Trypanosoma brucei, STIB 795",2.45 µM
same,IC50,[2],> 20.8 µM
CCN1C(=Cc2sc3ccc(Cl)cc3[n+]2CC)C=Cc2cc(OC)ccc21,IC50,"[1]; Trypanosoma brucei, STIB 795",0.706 µM
same,IC50,[2],> 4.17 µM
CC(C)CC[n+]1ccccc1C=Cc1ccc(N(C)C)cc1,IC50,"[1]; Trypanosoma brucei, STIB 795",0.734 µM
same,IC50,[2],> 10.4 µM
N=c1c2c(n(Cc3ccc(Cl)cc3Cl)c3c1CCC3)CCCC2,IC50,"[1]; Trypanosoma brucei, STIB 795",0.842 µM
same,IC50,[2],> 41.7 µM
CCC(C)(C)c1ccc(OCC(O)CNCc2ccccc2)c(C(C)(C)CC)c1 (stereo not drawn),IC50,"[1]; Trypanosoma brucei, STIB 795",> 10.4 µM
COC(=O)C1=C(OC)C(=O)OC12C=CC(=O)C=C2,IC50,"[1]; Trypanosoma brucei, STIB 795",0.524 µM
same,IC50,[2],1.06 µM
CN1/C(=C/c2cccc[n+]2C)Sc2ccccc21,IC50,"[1]; Trypanosoma brucei, STIB 795",0.477 µM
same,IC50,[2],> 20.8 µM
CC[n+]1c(/C=C2\Sc3cc(NC(C)=O)ccc3N2C)ccc2ccccc21,IC50,"[1]; Trypanosoma brucei, STIB 795",5.41 µM
same,IC50,[2],> 41.7 µM
Cc1ccc(-c2cn3c([n+]2-c2ccc(C)cc2)CCCCC3)cc1,IC50,"[1]; Trypanosoma brucei, STIB 795",6.4 µM
same,IC50,[2],> 20.8 µM
